Experimental data: PubChem BioAssay AID1745844 (Carcinogenic Potency Database (CPDB), 2022)

Test system: rodent lifetime carcinogenesis bioassay, tumor incidence TD50
Test: carcinogenic potency in animals, long-term in vivo studies, CPDB compilation (AID 1745844)
Conditions: in feed

Compound: OCC(CO)(CBr)CBr
- TD50 (mouse, strain B6C3F1, females, site: Harderian gland + lung + subcutaneous tissue, lesion: adenoma + adenoma, bilateral + carcinoma + alveolar/bronchiolar adenoma + alveolar/bronchiolar carcinoma + fibrosarcoma + sarcoma, dosed 104 weeks, study length 106 weeks): 67.8 mg/kg/day
- TD50 (mouse, strain B6C3F1, females, site: Harderian gland, lesion: adenoma + adenoma, bilateral + carcinoma, dosed 104 weeks, study length 106 weeks): 122 mg/kg/day
- TD50 (mouse, strain B6C3F1, females, site: Harderian gland, lesion: adenoma + adenoma, bilateral, dosed 104 weeks, study length 106 weeks): 187 mg/kg/day
- TD50 (mouse, strain B6C3F1, females, site: Harderian gland, lesion: carcinoma, dosed 104 weeks, study length 106 weeks): 323 mg/kg/day
- TD50 (mouse, strain B6C3F1, females, site: all sites, lesion: hemangioma + hemangiosarcoma, dosed 104 weeks, study length 106 weeks): 846 mg/kg/day
- TD50 (mouse, strain B6C3F1, females, site: all sites, lesion: hemangiosarcoma, dosed 104 weeks, study length 106 weeks): 1480 mg/kg/day
- TD50 (mouse, strain B6C3F1, females, site: any site (literature study), lesion: several types, types named in the paper, dosed 104 weeks, study length 106 weeks): 57.3 mg/kg/day
- TD50 (mouse, strain B6C3F1, females, site: forestomach, lesion: squamous-cell papilloma, dosed 104 weeks, study length 106 weeks): 446 mg/kg/day
- TD50 (mouse, strain B6C3F1, females, site: liver, lesion: hepatocellular adenoma + hepatoblastoma + hepatocellular carcinoma, dosed 104 weeks, study length 106 weeks): 267 mg/kg/day
- TD50 (mouse, strain B6C3F1, females, site: liver, lesion: hepatocellular adenoma, dosed 104 weeks, study length 106 weeks): 301 mg/kg/day
- TD50 (mouse, strain B6C3F1, females, site: lung, lesion: alveolar/bronchiolar adenoma + alveolar/bronchiolar carcinoma, dosed 104 weeks, study length 106 weeks): 127 mg/kg/day
- TD50 (mouse, strain B6C3F1, females, site: lung, lesion: alveolar/bronchiolar adenoma, dosed 104 weeks, study length 106 weeks): 171 mg/kg/day
- TD50 (mouse, strain B6C3F1, females, site: lung, lesion: alveolar/bronchiolar carcinoma, dosed 104 weeks, study length 106 weeks): 398 mg/kg/day
- TD50 (mouse, strain B6C3F1, females, site: mammary gland, lesion: carcinoma, dosed 104 weeks, study length 106 weeks): 1480 mg/kg/day
- TD50 (mouse, strain B6C3F1, females, site: subcutaneous tissue, lesion: fibrosarcoma + sarcoma, dosed 104 weeks, study length 106 weeks): 322 mg/kg/day
- TD50 (mouse, strain B6C3F1, females, site: subcutaneous tissue, lesion: sarcoma, dosed 104 weeks, study length 106 weeks): 350 mg/kg/day
- TD50 (mouse, strain B6C3F1, males, site: Harderian gland + kidney + lung, lesion: adenoma + adenoma, bilateral + carcinoma + carcinoma, bilateral + tubule adenoma + alveolar/bronchiolar adenoma + alveolar/bronchiol, dosed 104 weeks, study length 105 weeks): 106 mg/kg/day
- TD50 (mouse, strain B6C3F1, males, site: Harderian gland, lesion: adenoma + adenoma, bilateral + carcinoma + carcinoma, bilateral, dosed 104 weeks, study length 105 weeks): 155 mg/kg/day
- TD50 (mouse, strain B6C3F1, males, site: Harderian gland, lesion: adenoma + adenoma, bilateral, dosed 104 weeks, study length 105 weeks): 191 mg/kg/day
- TD50 (mouse, strain B6C3F1, males, site: any site (literature study), lesion: several types, types named in the paper, dosed 104 weeks, study length 105 weeks): 126 mg/kg/day
- TD50 (mouse, strain B6C3F1, males, site: forestomach, lesion: squamous-cell carcinoma + squamous-cell papilloma, dosed 104 weeks, study length 105 weeks): 581 mg/kg/day
- TD50 (mouse, strain B6C3F1, males, site: kidney, lesion: tubule adenoma, dosed 104 weeks, study length 105 weeks): 1190 mg/kg/day
- TD50 (mouse, strain B6C3F1, males, site: liver, lesion: hepatocellular adenoma + hepatoblastoma + hepatocellular carcinoma, dosed 104 weeks, study length 105 weeks): 2480 mg/kg/day
- TD50 (mouse, strain B6C3F1, males, site: lung, lesion: alveolar/bronchiolar adenoma + alveolar/bronchiolar carcinoma, dosed 104 weeks, study length 105 weeks): 218 mg/kg/day
- TD50 (mouse, strain B6C3F1, males, site: lung, lesion: alveolar/bronchiolar adenoma, dosed 104 weeks, study length 105 weeks): 270 mg/kg/day
- TD50 (mouse, strain B6C3F1, males, site: lung, lesion: alveolar/bronchiolar carcinoma, dosed 104 weeks, study length 105 weeks): 334 mg/kg/day
- TD50 (mouse, strain B6C3F1, males, site: thyroid gland, lesion: follicular-cell adenoma, dosed 104 weeks, study length 105 weeks): 835 mg/kg/day
- TD50 (rat, strain Fischer 344, females, site: all sites, lesion: mononuclear-cell leukemia, dosed 104 weeks, study length 105 weeks): 406 mg/kg/day
- TD50 (rat, strain Fischer 344, females, site: any site (literature study), lesion: several types, types named in the paper, dosed 104 weeks, study length 105 weeks): 94.4 mg/kg/day
- TD50 (rat, strain Fischer 344, females, site: esophagus + mammary gland + palate + thyroid gland + tongue, lesion: squamous-cell papilloma + adenoma + carcinoma + fibroadenoma + squamous-cell carcinoma + follicular-cell adenoma + follicular-cell c, dosed 104 weeks, study length 105 weeks): 84.3 mg/kg/day
- TD50 (rat, strain Fischer 344, females, site: esophagus, lesion: squamous-cell papilloma, dosed 104 weeks, study length 105 weeks): 1410 mg/kg/day
- TD50 (rat, strain Fischer 344, females, site: mammary gland, lesion: adenoma + carcinoma + fibroadenoma, dosed 104 weeks, study length 105 weeks): 83.8 mg/kg/day
- TD50 (rat, strain Fischer 344, females, site: mammary gland, lesion: adenoma + fibroadenoma, dosed 104 weeks, study length 105 weeks): 83 mg/kg/day
- TD50 (rat, strain Fischer 344, females, site: mammary gland, lesion: fibroadenoma, dosed 104 weeks, study length 105 weeks): 83 mg/kg/day
- TD50 (rat, strain Fischer 344, females, site: palate + tongue, lesion: squamous-cell carcinoma + squamous-cell papilloma, dosed 104 weeks, study length 105 weeks): 1010 mg/kg/day
- TD50 (rat, strain Fischer 344, females, site: palate + tongue, lesion: squamous-cell papilloma, dosed 104 weeks, study length 105 weeks): 1240 mg/kg/day
- TD50 (rat, strain Fischer 344, females, site: pituitary gland, lesion: pars distalis adenoma, dosed 104 weeks, study length 105 weeks): 300 mg/kg/day
- TD50 (rat, strain Fischer 344, females, site: subcutaneous tissue, lesion: fibrosarcoma + fibroma + sarcoma, dosed 104 weeks, study length 105 weeks): 1370 mg/kg/day
- TD50 (rat, strain Fischer 344, females, site: subcutaneous tissue, lesion: fibrosarcoma + sarcoma, dosed 104 weeks, study length 105 weeks): 4200 mg/kg/day
- TD50 (rat, strain Fischer 344, females, site: thyroid gland, lesion: follicular-cell adenoma + follicular-cell carcinoma, dosed 104 weeks, study length 105 weeks): 1670 mg/kg/day
- TD50 (rat, strain Fischer 344, females, site: thyroid gland, lesion: follicular-cell adenoma, dosed 104 weeks, study length 105 weeks): 2160 mg/kg/day
- TD50 (rat, strain Fischer 344, females, site: tongue, lesion: squamous-cell carcinoma + squamous-cell papilloma, dosed 104 weeks, study length 105 weeks): 1260 mg/kg/day
- TD50 (rat, strain Fischer 344, females, site: tongue, lesion: squamous-cell papilloma, dosed 104 weeks, study length 105 weeks): 1360 mg/kg/day
- TD50 (rat, strain Fischer 344, females, site: uterus, lesion: endometrial stromal polyp + endometrial stromal sarcoma, dosed 104 weeks, study length 105 weeks): 859 mg/kg/day
- TD50 (rat, strain Fischer 344, females, site: uterus, lesion: endometrial stromal polyp, dosed 104 weeks, study length 105 weeks): 904 mg/kg/day
- TD50 (rat, strain Fischer 344, males, site: Zymbal's gland, lesion: adenoma + carcinoma + carcinoma, bilateral, dosed 12 weeks, study length 103 weeks): 138 mg/kg/day
- TD50 (rat, strain Fischer 344, males, site: Zymbal's gland, lesion: adenoma + carcinoma, dosed 104 weeks, study length 105 weeks): 1600 mg/kg/day
- TD50 (rat, strain Fischer 344, males, site: Zymbal's gland, lesion: adenoma, dosed 104 weeks, study length 105 weeks): 1950 mg/kg/day
- TD50 (rat, strain Fischer 344, males, site: Zymbal's gland, lesion: carcinoma + carcinoma, bilateral, dosed 12 weeks, study length 103 weeks): 138 mg/kg/day
- TD50 (rat, strain Fischer 344, males, site: all sites + colon + esophagus + gingiva + jejunum + lung + mammary gland + palate + skin + subcutaneous tissue + thyroid gland + tongue + urinar, lesion: mononuclear-cell leukemia + mesothelioma, malignant + adenomatous polyp + squamous-cell papilloma + squamous-cell carcinoma + carc, dosed 104 weeks, study length 105 weeks): 68.1 mg/kg/day
- TD50 (rat, strain Fischer 344, males, site: all sites, lesion: mesothelioma, malignant, dosed 12 weeks, study length 103 weeks): 28.4 mg/kg/day
- TD50 (rat, strain Fischer 344, males, site: all sites, lesion: mesothelioma, malignant, dosed 104 weeks, study length 105 weeks): 335 mg/kg/day
- TD50 (rat, strain Fischer 344, males, site: all sites, lesion: mononuclear-cell leukemia, dosed 12 weeks, study length 103 weeks): 22.5 mg/kg/day
- TD50 (rat, strain Fischer 344, males, site: all sites, lesion: mononuclear-cell leukemia, dosed 104 weeks, study length 105 weeks): 95.8 mg/kg/day
- TD50 (rat, strain Fischer 344, males, site: any site (literature study), lesion: several types, types named in the paper, dosed 12 weeks, study length 103 weeks): 6.25 mg/kg/day
- TD50 (rat, strain Fischer 344, males, site: any site (literature study), lesion: several types, types named in the paper, dosed 104 weeks, study length 105 weeks): 63.8 mg/kg/day
- TD50 (rat, strain Fischer 344, males, site: colon + rectum, lesion: adenomatous polyp + carcinoma, dosed 12 weeks, study length 103 weeks): 146 mg/kg/day
- TD50 (rat, strain Fischer 344, males, site: colon + rectum, lesion: adenomatous polyp, dosed 12 weeks, study length 103 weeks): 152 mg/kg/day
- TD50 (rat, strain Fischer 344, males, site: colon, lesion: adenomatous polyp, dosed 104 weeks, study length 105 weeks): 997 mg/kg/day
- TD50 (rat, strain Fischer 344, males, site: esophagus, lesion: squamous-cell papilloma, dosed 104 weeks, study length 105 weeks): 1390 mg/kg/day
- TD50 (rat, strain Fischer 344, males, site: forestomach, lesion: squamous-cell papilloma, dosed 12 weeks, study length 103 weeks): 217 mg/kg/day
- TD50 (rat, strain Fischer 344, males, site: forestomach, lesion: squamous-cell papilloma, dosed 104 weeks, study length 105 weeks): 16000 mg/kg/day
- TD50 (rat, strain Fischer 344, males, site: gingiva + palate + tongue, lesion: squamous-cell carcinoma + squamous-cell papilloma, dosed 104 weeks, study length 105 weeks): 285 mg/kg/day
- TD50 (rat, strain Fischer 344, males, site: ileum + jejunum, lesion: carcinoma + adenomatous polyp, dosed 12 weeks, study length 103 weeks): 363 mg/kg/day
- TD50 (rat, strain Fischer 344, males, site: ileum + jejunum, lesion: carcinoma, dosed 12 weeks, study length 103 weeks): 445 mg/kg/day
- TD50 (rat, strain Fischer 344, males, site: jejunum, lesion: carcinoma, dosed 104 weeks, study length 105 weeks): 5660 mg/kg/day
